One experiment has as its target CDK12/CycK (Homo sapiens, UniProt Q9NYV4). The experiment is described as follows: CDK12/CycK high ATP kinase assay (TR-FRET, 2 mM ATP). The class given is biochemical. The note with it: 2 mM ATP (high ATP); median; read-out: CDK12/CyclinK, 2 mM ATP (high ATP), IC50-[mol/l] (median). In short, it runs like this: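 Read-out is TR-FRET (Eu-anti-rabbit IgG, anti-phospho-c-Myc Ser62 antibody, streptavidin-XL665) after EDTA stop. Reaction ran 60 min at 22 °C using 1 µM biotin-peptide and high ATP (2 mM) with roughly 0.75 nM recombinant CDK12/CycK, after 15 min compound pre-binding; normalised emission ratios yield IC50.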
(TR-FRET usually uses a lanthanide donor and a delayed reading to cut background.)

Experiment [1] has as its system MDA-MB-231, human breast cancer cells. The experiment is described as follows: Proliferation assay MDA-MB-231 (crystal violet, 4 days). The class given is cell-based. Conditions: Homo sapiens, MDA-MB-231, 96 h, MDA-MB-231 cells, median, read-out: Prolif-MDA MB-231, IC50-[mol/l] (median). In short, it runs like this:
(§1)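 IC50 from a 4-parameter fit of crystal violet absorbance (595 nm), scaled between the day-of-dosing plate (0%) and vehicle cells (100%). MDA-MB-231 or CAL-120 cells were treated for 4 days with 0.01–10 micromol/L compound in 0.1% DMSO after 24 h attachment.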

In experiment [2] the test system is CAL-120, human breast adenocarcinoma cells. Put plainly: Proliferation assay CAL-120 (crystal violet, 4 days). The class given is cell-based. The note with it: Homo sapiens, CAL-120, 96 h, CAL-120 cells, median, read-out: Prolif-CAL-120, IC50-[mol/l] (median). In short, it runs like this:
as §1

Experiment [3] deals with T1, CDK12 (nuclear staining in CAL-120 cells) (Homo sapiens, UniProt Q9NYV4).
T1 construct: endogenous in cells; host or cells: CAL-120 human breast cancer cells (DSMZ ACC 459)
T1 sequence (Q9NYV4 whole entry): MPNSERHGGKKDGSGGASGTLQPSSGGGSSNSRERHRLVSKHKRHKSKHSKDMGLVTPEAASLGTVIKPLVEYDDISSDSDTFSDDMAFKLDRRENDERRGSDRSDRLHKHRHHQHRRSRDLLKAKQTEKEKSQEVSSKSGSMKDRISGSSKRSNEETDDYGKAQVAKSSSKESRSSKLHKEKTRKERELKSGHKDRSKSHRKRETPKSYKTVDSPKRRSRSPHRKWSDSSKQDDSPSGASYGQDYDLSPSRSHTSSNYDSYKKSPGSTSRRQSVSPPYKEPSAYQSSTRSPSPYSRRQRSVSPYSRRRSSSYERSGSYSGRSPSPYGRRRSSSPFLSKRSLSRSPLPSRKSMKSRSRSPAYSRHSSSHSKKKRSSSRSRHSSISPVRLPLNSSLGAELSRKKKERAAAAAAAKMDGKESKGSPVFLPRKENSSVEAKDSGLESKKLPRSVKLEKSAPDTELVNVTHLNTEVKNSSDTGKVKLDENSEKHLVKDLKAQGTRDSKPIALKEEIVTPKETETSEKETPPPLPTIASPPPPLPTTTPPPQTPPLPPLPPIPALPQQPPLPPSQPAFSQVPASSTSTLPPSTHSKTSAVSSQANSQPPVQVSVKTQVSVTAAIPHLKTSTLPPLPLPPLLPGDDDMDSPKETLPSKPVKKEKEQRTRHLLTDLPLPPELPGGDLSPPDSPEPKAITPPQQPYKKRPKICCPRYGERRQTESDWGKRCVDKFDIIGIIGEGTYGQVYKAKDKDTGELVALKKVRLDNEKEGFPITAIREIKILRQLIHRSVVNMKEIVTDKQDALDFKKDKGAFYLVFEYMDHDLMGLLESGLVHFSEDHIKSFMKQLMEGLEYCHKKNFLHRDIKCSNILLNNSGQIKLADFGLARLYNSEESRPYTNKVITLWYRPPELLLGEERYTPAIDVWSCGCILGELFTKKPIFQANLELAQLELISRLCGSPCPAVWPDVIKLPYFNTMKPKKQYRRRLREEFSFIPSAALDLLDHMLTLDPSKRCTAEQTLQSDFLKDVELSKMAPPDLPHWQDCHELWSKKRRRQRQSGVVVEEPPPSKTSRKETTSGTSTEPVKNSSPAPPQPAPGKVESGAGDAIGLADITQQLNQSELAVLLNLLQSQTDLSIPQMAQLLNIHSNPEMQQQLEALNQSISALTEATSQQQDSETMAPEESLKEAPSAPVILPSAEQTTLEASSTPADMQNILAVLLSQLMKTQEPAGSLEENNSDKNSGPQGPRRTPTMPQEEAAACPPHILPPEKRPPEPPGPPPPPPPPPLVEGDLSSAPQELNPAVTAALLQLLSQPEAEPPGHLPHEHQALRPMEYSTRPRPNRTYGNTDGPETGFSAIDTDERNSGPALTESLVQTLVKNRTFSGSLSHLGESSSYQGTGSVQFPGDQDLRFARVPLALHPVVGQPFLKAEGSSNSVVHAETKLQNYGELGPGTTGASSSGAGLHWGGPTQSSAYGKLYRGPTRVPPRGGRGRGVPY
T1 sequence (O75909 whole entry partner): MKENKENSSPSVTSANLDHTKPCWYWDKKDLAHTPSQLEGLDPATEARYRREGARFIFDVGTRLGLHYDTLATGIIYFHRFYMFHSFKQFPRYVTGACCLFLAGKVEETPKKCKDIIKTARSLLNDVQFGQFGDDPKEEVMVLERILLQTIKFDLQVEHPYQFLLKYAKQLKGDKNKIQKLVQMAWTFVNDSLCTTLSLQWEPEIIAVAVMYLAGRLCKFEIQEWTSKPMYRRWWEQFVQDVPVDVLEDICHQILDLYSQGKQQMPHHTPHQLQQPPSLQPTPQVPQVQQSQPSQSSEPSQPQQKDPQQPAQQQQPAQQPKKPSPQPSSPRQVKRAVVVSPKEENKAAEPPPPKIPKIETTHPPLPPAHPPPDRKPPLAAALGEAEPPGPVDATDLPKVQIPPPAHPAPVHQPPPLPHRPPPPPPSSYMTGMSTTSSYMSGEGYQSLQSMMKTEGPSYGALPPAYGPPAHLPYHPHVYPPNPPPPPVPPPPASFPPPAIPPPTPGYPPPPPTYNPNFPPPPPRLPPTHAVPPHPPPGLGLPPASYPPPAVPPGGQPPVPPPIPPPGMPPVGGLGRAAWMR
Put plainly: CDK12 nuclear protein level: immunofluorescence/high content analysis (CAL-120). The class given is cell-based. Conditions: for DC50: CAL-120 cells, 24 h, immunofluorescence, 50% reduction of nuclear CDK12 staining intensity, median, read-out: CDK12 degradation IF, DC50- [mol/l] (median); for (IC50 CDK12 high ATP) to (Degradation DC50 CDK12) ratio: ratio of IC50 CDK12 high ATP kinase assay to DC50 CDK12 degradation (IF, CAL-120). In short, it runs like this:
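DC50 is the degrader concentration that halves nuclear CDK12 immunofluorescence relative to controls, measured by high-content imaging. CAL-120 cells were exposed to compound for 24 h at 37 °C before PFA fixation, and signal was normalized to DMSO and control wells.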

Chain of CDK12/CycK (Q9NYV4 with tags, fused parts or gaps): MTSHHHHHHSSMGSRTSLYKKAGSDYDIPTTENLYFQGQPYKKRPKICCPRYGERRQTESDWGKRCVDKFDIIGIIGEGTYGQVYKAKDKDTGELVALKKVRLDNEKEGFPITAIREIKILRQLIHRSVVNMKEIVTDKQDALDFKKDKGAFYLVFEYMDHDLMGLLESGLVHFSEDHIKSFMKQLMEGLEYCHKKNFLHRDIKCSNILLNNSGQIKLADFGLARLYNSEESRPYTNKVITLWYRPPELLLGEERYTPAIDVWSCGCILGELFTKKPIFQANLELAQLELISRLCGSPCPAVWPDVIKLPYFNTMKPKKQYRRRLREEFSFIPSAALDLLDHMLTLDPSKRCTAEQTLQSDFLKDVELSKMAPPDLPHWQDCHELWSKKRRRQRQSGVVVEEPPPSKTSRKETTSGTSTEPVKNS
Chain of CDK12/CycK (O75909 1-300 partner limits assumed): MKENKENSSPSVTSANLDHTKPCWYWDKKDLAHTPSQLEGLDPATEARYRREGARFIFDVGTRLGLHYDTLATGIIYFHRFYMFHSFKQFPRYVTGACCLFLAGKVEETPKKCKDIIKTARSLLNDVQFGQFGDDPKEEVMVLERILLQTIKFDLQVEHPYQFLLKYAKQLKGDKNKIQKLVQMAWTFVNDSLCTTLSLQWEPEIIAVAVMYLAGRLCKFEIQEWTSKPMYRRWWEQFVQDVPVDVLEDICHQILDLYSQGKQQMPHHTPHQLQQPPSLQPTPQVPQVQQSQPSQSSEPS

In the case of `Fc1ccc2[nH]c(CNc3nc(N4CCOCC4)nc4c(CC(F)F)cnn34)nc2c1F.O=C(O)C(F)(F)F` [Example 425, trifluoroacetic acid N-[(4,5-difluoro-1H-benzimidazol-2-yl)methyl]-8-(2,2-difluoroethyl)-2-(morpholin-4-yl)pyrazolo[1,5-a][1,3,5]triazin-4-amine], the values for the IC50 (at CDK12/CycK; in experiment [1]; in experiment [2]) were 2140 nM, 8.76 nM and 3.06 nM, respectively. Further, the DC50 in experiment [3] turned out to be 2.51 nM. In addition, the “(IC50 CDK12 high ATP) to (Degradation DC50 CDK12) ratio” value in experiment [3] worked out at 852.
With `Cc1cnn2c(NCc3nc4c(F)c(F)ccc4[nH]3)nc(N3CCN(C)CC3)nc12` [Example 394, N-[(4,5-difluoro-1H-benzimidazol-2-yl)methyl]-8-methyl-2-(4-methylpiperazin-1-yl)pyrazolo[1,5-a][1,3,5]triazin-4-amine], the IC50 on CDK12/CycK is more than 18700 nM; in experiment [1], 19.8 nM; in experiment [2] it was 4.32 nM. The DC50 in experiment [3] was found to be 5.65 nM. For the same molecule, the “(IC50 CDK12 high ATP) to (Degradation DC50 CDK12) ratio” value in experiment [3] is more than 3303.
`Clc1cc2nc(CNc3nc(N4CCOCC4)nc4c(-c5cncs5)cnn34)[nH]c2cc1Cl` [Example 443, N-[(5,6-dichloro-1H-benzimidazol-2-yl)methyl]-2-(morpholin-4-yl)-8-(1,3-thiazol-5-yl)pyrazolo[1,5-a][1,3,5]triazin-4-amine]: the IC50 came out at 3980 nM at CDK12/CycK, 6.17 nM in experiment [1] and 5.31 nM in experiment [2]. For the same molecule, the DC50 in experiment [3] is 4.23 nM. The “(IC50 CDK12 high ATP) to (Degradation DC50 CDK12) ratio” value in experiment [3] worked out at 941.
Consider `CC(C)COc1nc(NCc2nc3ccccc3[nH]2)n2ncc(Br)c2n1` [Example 409, N-[(1H-benzimidazol-2-yl)methyl]-8-bromo-2-(2-methylpropoxy)pyrazolo[1,5-a][1,3,5]triazin-4-amine], for which the values for the IC50 (at CDK12/CycK; in experiment [1]; in experiment [2]) were more than 15800 nM, 343 nM and 99 nM, respectively. In addition, the DC50 in experiment [3] came to 29.8 nM. For the same molecule, in experiment [3], the “(IC50 CDK12 high ATP) to (Degradation DC50 CDK12) ratio” value was more than 531.
The like results for `Clc1cc2nc(CNc3nc(N4CCOCC4)nc4c(-c5ccnnc5)cnn34)[nH]c2cc1Cl.O=C(O)C(F)(F)F` [Example 440, trifluoroacetic acid N-[(5,6-dichloro-1H-benzimidazol-2-yl)methyl]-2-(morpholin-4-yl)-8-(pyridazin-4-yl)pyrazolo[1,5-a][1,3,5]triazin-4-amine] were, in that order, more than 20000 nM, 21.4 nM, 7.39 nM, 6.67 nM and more than 2996.
As for `CCNc1nc(NCc2ncc(-c3ccccc3)[nH]2)n2ncc(C(C)C)c2n1` [Example 34, N^2-ethyl-N^4-[(5-phenyl-1H-imidazol-2-yl)methyl]-8-(propan-2-yl)pyrazolo[1,5-a][1,3,5]triazine-2,4-diamine], the IC50 on CDK12/CycK was more than 5710 nM; in experiment [1], 48.6 nM. The DC50 in experiment [3] came out at 12.7 nM. In addition, the “(IC50 CDK12 high ATP) to (Degradation DC50 CDK12) ratio” value in experiment [3] is on record as more than 449.
As to `Cc1cnn2c(NCc3nc4ccccc4[nH]3)nc(N3CCN(C)CC3)nc12` [Example 396, N-[(1H-benzimidazol-2-yl)methyl]-8-methyl-2-(4-methylpiperazin-1-yl)pyrazolo[1,5-a][1,3,5]triazin-4-amine], the IC50 was more than 20000 nM on CDK12/CycK, 157 nM in experiment [1] and 55 nM in experiment [2]. Besides, the DC50 in experiment [3] was 19.4 nM. The “(IC50 CDK12 high ATP) to (Degradation DC50 CDK12) ratio” value in experiment [3] was more than 1031.
In the same order, the values of `CN1CCN(c2nc(NCc3nc4c(F)c(F)ccc4[nH]3)n3ncc(CC(F)(F)F)c3n2)CC1` [Example 437, N-[(4,5-difluoro-1H-benzimidazol-2-yl)methyl]-2-(4-methylpiperazin-1-yl)-8-(2,2,2-trifluoroethyl) pyrazolo[1,5-a][1,3,5]triazin-4-amine] are more than 20000 nM, 45.8 nM, 10.9 nM, 1.76 nM and more than 11369.
For `Brc1cnn2c(NCc3nc4ccccc4[nH]3)nc(OCCN3CCCC3)nc12` [Example 404, N-[(1H-benzimidazol-2-yl)methyl]-8-bromo-2-[2-(pyrrolidin-1-yl)ethoxy]pyrazolo[1,5-a][1,3,5]triazin-4-amine], the IC50 on CDK12/CycK was more than 20000 nM; in experiment [1], 1840 nM; in experiment [2], 189 nM. The DC50 in experiment [3] was determined as 114 nM. Further, the “(IC50 CDK12 high ATP) to (Degradation DC50 CDK12) ratio” value in experiment [3] is reported as more than 175.
`CN(CC(C)(C)O)c1nc(NCc2nc3c(F)c(F)ccc3[nH]2)n2ncc(C(F)(F)F)c2n1` [Example 402, 1-{[4-{[(4,5-difluoro-1H-benzimidazol-2-yl)methyl]amino}-8-(trifluoromethyl)pyrazolo[1,5-a][1,3,5]triazin-2-yl](methyl)amino}-2-methylpropan-2-ol]: the IC50 on CDK12/CycK came to 224 nM; in experiment [1], 8.56 nM; in experiment [2], 7.85 nM. In addition, in experiment [3], the DC50 is 7.03 nM. In addition, in experiment [3], the “(IC50 CDK12 high ATP) to (Degradation DC50 CDK12) ratio” value is on record as 32.
The like results for `FC(F)Cc1cnn2c(NCc3nc4ccccc4[nH]3)nc(N3CCOCC3)nc12.O=C(O)C(F)(F)F` [Example 444, trifluoroacetic acid N-[(1H-benzimidazol-2-yl)methyl]-8-(2,2-difluoroethyl)-2-(morpholin-4-yl)pyrazolo[1,5-a][1,3,5]triazin-4-amine] were, in that order, 8510 nM, 69.1 nM, 14.9 nM, 7.88 nM and 1080.
Regarding `COC(C)(C)COc1nc(NCc2nc3ccccc3[nH]2)n2ncc(Br)c2n1` [Example 403, N-[(1H-benzimidazol-2-yl)methyl]-8-bromo-2-(2-methoxy-2-methylpropoxy)pyrazolo[1,5-a][1,3,5]triazin-4-amine], the IC50 is more than 20000 nM at CDK12/CycK, 524 nM in experiment [1] and 151 nM in experiment [2]. For the same molecule, in experiment [3], the DC50 stood at 43.1 nM. Also, the “(IC50 CDK12 high ATP) to (Degradation DC50 CDK12) ratio” value in experiment [3] is given as more than 464.
Turning to `FC(F)(F)c1cccc(-c2nnc(CNc3nc(N4CCOCC4)nc4c(Br)cnn34)[nH]2)c1` [Example 52, 8-bromo-2-(morpholin-4-yl)-N-({5-[3-(trifluoromethyl)phenyl]-4H-1,2,4-triazol-3-yl}methyl)pyrazolo[1,5-a][1,3,5]triazin-4-amine], the IC50 on CDK12/CycK was determined as 1640 nM. Further, the IC50 in experiment [2] came to 23.3 nM. Further, in experiment [3], the DC50 was found to be 20.5 nM and the “(IC50 CDK12 high ATP) to (Degradation DC50 CDK12) ratio” value was 80.
Turning to `Brc1cnn2c(NCc3nnc(-c4ccccn4)[nH]3)nc(N3CCOCC3)nc12` [Example 54, 8-bromo-2-(morpholin-4-yl)-N-{[5-(pyridin-2-yl)-4H-1,2,4-triazol-3-yl]methyl}pyrazolo[1,5-a][1,3,5]triazin-4-amine], the IC50 at CDK12/CycK turned out to be 5650 nM. The IC50 in experiment [2] was determined as 53.8 nM. In experiment [3], the DC50 was determined as 37.8 nM and the “(IC50 CDK12 high ATP) to (Degradation DC50 CDK12) ratio” value worked out at 150.
Take `Brc1cnn2c(NCc3nc4ccccc4[nH]3)nc(N3CCCC3)nc12` [Example 47, N-[(1H-benzimidazol-2-yl)methyl]-8-bromo-2-(pyrrolidin-1-yl)pyrazolo[1,5-a][1,3,5]triazin-4-amine]: the IC50 at CDK12/CycK was found to be 7190 nM. Also, the IC50 in experiment [2] was found to be 23.9 nM. In experiment [3], the DC50 is 5.75 nM and the “(IC50 CDK12 high ATP) to (Degradation DC50 CDK12) ratio” value was 1252.
In the case of `CC(C)c1cnn2c(NCc3nnc(-c4ccccc4)[nH]3)nc(N3CCOCC3)nc12` [Example 33, 2-(morpholin-4-yl)-N-[(5-phenyl-4H-1,2,4-triazol-3-yl)methyl]-8-(propan-2-yl)pyrazolo[1,5-a][1,3,5]triazin-4-amine], the IC50 on CDK12/CycK was found to be 5230 nM. In addition, in experiment [1], the IC50 came to 290 nM. Moreover, in experiment [3], the DC50 turned out to be 67.8 nM and the “(IC50 CDK12 high ATP) to (Degradation DC50 CDK12) ratio” value is on record as 77.
For the molecule `OC[C@@H]1CCCCN1c1nc(NCc2nc3ccccc3[nH]2)n2ncc(Br)c2n1` [Example 59, [(2S)-1-(4-{[(1H-benzimidazol-2-yl)methyl]amino}-8-bromopyrazolo[1,5-a][1,3,5]triazin-2-yl)piperidin-2-yl]methanol], the values for the IC50 (on CDK12/CycK; in experiment [2]) were 547 nM and 12.5 nM, respectively. For the same molecule, the DC50 in experiment [3] came out at 5.26 nM. For the same molecule, the “(IC50 CDK12 high ATP) to (Degradation DC50 CDK12) ratio” value in experiment [3] is listed as 104.
The like results for `N#Cc1cccc(-c2nnc(CNc3nc(N4CCOCC4)nc4c(Br)cnn34)[nH]2)c1` [Example 55, 3-[5-({[8-bromo-2-(morpholin-4-yl)pyrazolo[1,5-a][1,3,5]triazin-4-yl]amino}methyl)-4H-1,2,4-triazol-3-yl]benzonitrile] were, in that order, 771 nM, 6.28 nM, 3.43 nM and 224.

The values are drawn from patent US20230117034A1, “PYRAZOLOTRIAZINES” (Bayer Aktiengesellschaft, priority 2019, published 2023).
